Assay results taken from patent US20240238300A1, “TREATMENT METHODS FOR SUBJECTS WITH CANCER HAVING AN ABERRATION IN EGFR AND/OR HER2” (TAIHO PHARMACEUTICAL CO., LTD., priority 2021, published 2024).

Assays:
[1] = tested on: NCI-N87 human gastric carcinoma xenografts; assay: antitumor effect in nude mice bearing NCI-N87 xenografts; type: in vivo; conditions: 12.5 mg/kg/day orally once daily 14 days, Day 15
Description: The antitumor effect of Compound (1) was evaluated in nude mice bearing HER2-overexpressing NCI-N87 human gastric carcinoma xenografts. Compound (1) dosing suspensions using 0.5% w/v hydroxypropyl methylcellulose (HPMC) as vehicle were prepared at 4 dose levels (3.1, 6.3, 12.5, and 25.0 mg/kg/day) and administered orally once daily for 14 days. In addition, the antitumor effect of poziotinib, which is a pan-ErbB inhibitor and currently under clinical development for the treatment of cancer with epidermal growth factor receptor containing HER2 exon 20 insertion mutations, was also evaluated using this model. Poziotinib was administered orally once daily for 14 days at 2 dose levels (0.5 or 1.0 mg/kg/day). The control group received 0.5% w/v HPMC once daily for 14 days.

[2] = pharmacokinetics after single oral administration; type: in vivo, male nude mice; conditions: plasma; for AUC(0-t): male, nude, mouse, read-out: AUC0-24
Description: (§1) Compound (1) was orally administered. The concentrations of Compound (1) were quantified using LC-MS/MS for the PK studies. ^13C-labeled Compound (1) was used as an internal standard.
Pharmacokinetics in nude mice after single oral administration. Plasma concentration profiles and PK parameters of Compound (1) were determined in male nude mice following a single oral administration at doses of 6.25, 12.5, and 25 mg/kg (FIGS. 4A and 4B, and Table 4). The Cmax, AUClast, and AUC0-24 values increased in a dose dependent manner.

[3] = pharmacokinetics after multiple oral administration for 7 days; type: in vivo, male nude mice; conditions: for AUC(0-t): male, nude, mouse, plasma, read-out: AUC0-24
Description: as §1
Pharmacokinetics in nude mice after multiple oral administration for 7 days. Plasma concentration profiles and PK parameters of Compound (1) on Day 7 were determined in male nude mice after once daily oral administrations for 7 days at doses of 6.25, 12.5, and 25 mg/kg (FIGS. 5A and 5B, and Table 5). The Cmax, AUClast, and AUC0-24 values increased in a dose-dependent manner.

[4] = tested on: NCI-N87 tumor fragment #6, clone 3; assay: refractory T-DM1 monoclonal cell line model, comparison to DS-8201a; type: in vivo, male mice; conditions: for antitumor effect (tumor volume): 21 days
Description: The obtained cell line was implanted into BALB/cAJcl-mu/nu male mice (8.0×10^6 cells in 100 μL of PBS/mouse, subcutaneous) for the efficacy test.
The tumor volumes (TV, mm) and body weights of the mice were recorded.

human BCRP [5] = target: T1, human BCRP (Homo sapiens, UniProt Q9UNQ0); assay: in vitro
T1 sequence (Q9UNQ0 1-655): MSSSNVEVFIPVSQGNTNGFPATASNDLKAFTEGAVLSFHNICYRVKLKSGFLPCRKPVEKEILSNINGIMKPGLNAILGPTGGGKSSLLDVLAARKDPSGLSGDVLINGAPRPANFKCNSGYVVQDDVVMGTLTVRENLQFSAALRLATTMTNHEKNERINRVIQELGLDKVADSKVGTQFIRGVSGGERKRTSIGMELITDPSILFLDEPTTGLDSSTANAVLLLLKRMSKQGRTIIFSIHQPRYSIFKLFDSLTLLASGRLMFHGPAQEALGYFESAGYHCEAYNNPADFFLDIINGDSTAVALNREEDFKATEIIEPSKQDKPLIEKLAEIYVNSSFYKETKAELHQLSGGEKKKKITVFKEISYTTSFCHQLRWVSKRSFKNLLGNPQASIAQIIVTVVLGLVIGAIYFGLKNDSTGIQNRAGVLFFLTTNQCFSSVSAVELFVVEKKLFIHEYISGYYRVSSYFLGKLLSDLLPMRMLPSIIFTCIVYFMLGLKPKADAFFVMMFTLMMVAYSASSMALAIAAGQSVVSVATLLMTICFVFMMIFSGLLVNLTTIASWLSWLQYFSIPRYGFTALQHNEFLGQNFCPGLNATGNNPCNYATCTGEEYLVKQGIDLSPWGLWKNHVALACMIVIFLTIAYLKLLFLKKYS

human BCRP [6] = target: T1, human BCRP; assay: substrate susceptibility on human BCRP, bidirectional transcellular transport, BCRP/MDCK II cells; type: in vitro ADME; parameters: expressed in transfected cells; host or cells: MDCK II (canine kidney) cells expressing human BCRP; parent MDCK II as control
Description: Substrate susceptibility of Compound (1) on human BCRP. Time-dependence of the bidirectional transcellular transport of 0.3, 0.5, 1, 3, and 30 μmol/L Compound (1) across human BCRP/Madin-Darby canine kidney II (MDCK II) cells and parent/MDCK II cells was analyzed.

[7] = Day 7, once daily oral 6.25 mg/kg for 7 days
[8] = Day 7, once daily oral 12.5 mg/kg for 7 days
[9] = Day 7, once daily oral 25 mg/kg for 7 days

## C=CC(=O)N1C[C@H](n2c(C#CC3CC3)c(C(=O)N[C@H](C)c3ccccc3)c3c(N)ncnc32)C[C@@H]1C [Compound (1), 7-((3R,5S)-1-acryloyl-5-methylpyrrolidin-3-yl)-4-amino-6-(cyclopropylethynyl)-N—((R)-1-phenylethyl)-7H-pyrrolo[2,3-d]pyrimidine-5-carboxamide]
[1]
  T/C ratio of the mean tumor volumes: 7.3%
[2]; single oral 6.25 mg/kg
  AUC(0-t): 822 ± 208 ng·h/mL
  AUClast: 795 ± 229 ng·h/mL
  Cmax: 601 ± 111 ng/mL
  Tmax: 19.8 ± 8.4 min
[2]; single oral 25 mg/kg
  AUC(0-t): 5230 ± 620 ng·h/mL
  AUClast: 5080 ± 820 ng·h/mL
  Cmax: 3580 ± 190 ng/mL
  Tmax: 15 ± 0 min
[2]; single oral 12.5 mg/kg
  AUC0-24: 2010 ± 230 ng·h/mL
  AUClast: 2010 ± 230 ng·h/mL
  Cmax: 1590 ± 220 ng/mL
  Tmax: 15 ± 0 min
[3]; [7]
  AUClast: 972 ± 239 ng·h/mL
  Cmax: 1170 ± 300 ng/mL
  Tmax: 15 ± 0 min
  AUC(0-t): 1030 ± 280 ng·h/mL
[3]; [8]
  AUC0-24: 2830 ± 400 ng·h/mL
  AUClast: 2800 ± 460 ng·h/mL
  Cmax: 2040 ± 230 ng/mL
  Tmax: 19.8 ± 8.4 min
[3]; [9]
  AUClast: 6180 ± 310 ng·h/mL
  Cmax: 3710 ± 360 ng/mL
  Tmax: 25.2 ± 8.4 min
  AUC(0-t): 6400 ± 430 ng·h/mL
[4]; 12.5 mg/kg/day PO once per day
  antitumor effect (tumor volume): arresting tumor growth
[4]; 20 mg/kg/day PO once per day
  antitumor effect (tumor volume): inducing tumor regression
[4]; 12.5 or 20 mg/kg
  body weight loss: did not cause body weight loss
Human BCRP [5]
  activity at 3 h, 0.01 μmol/L: 114%
  activity at 3 h, 0.1 μmol/L: 95%
  activity at 3 h, 0.5 μmol/L: 54%
  activity at 3 h, 1 μmol/L: 24%
  activity at 3 h, 5 μmol/L: 10%
  activity at 3 h, 10 μmol/L: 3%
Human BCRP [6]
  concentration at which transport via human BCRP is saturable: > 1000 nM
Human BCRP [6]; 0.3 μmol/L Compound (1), 4 hours
  net flux ratio: 1.5±0.6
Human BCRP [6]; 0.5 μmol/L Compound (1) with 10 μmol/L Ko143, 3 hours
  net flux ratio: 1.2±0.2
Human BCRP [6]; 0.5 μmol/L Compound (1) with 10 μmol/L Ko143, 4 hours
  net flux ratio: 1.2±0.2
Human BCRP [6]; 0.5 μmol/L Compound (1), 2 hours
  net flux ratio: 1.9±0.9
Human BCRP [6]; 0.5 μmol/L Compound (1), 3 hours
  net flux ratio: 3.0±0.9
Human BCRP [6]; 0.5 μmol/L Compound (1), 4 hours
  net flux ratio: 2.7±0.8
Human BCRP [6]; 1 μmol/L Compound (1) with 10 μmol/L Ko143, 4 hours
  net flux ratio: 1.4±0.2
Human BCRP [6]; 1 μmol/L Compound (1), 2 hours
  net flux ratio: 2.3±0.7
Human BCRP [6]; 1 μmol/L Compound (1), 3 hours
  net flux ratio: 1.8±0.4
Human BCRP [6]; 1 μmol/L Compound (1), 4 hours
  net flux ratio: 2.2±0.7
Human BCRP [6]; 3 μmol/L Compound (1), 2 hours
  net flux ratio: 2.0±0.3
Human BCRP [6]; 3 μmol/L Compound (1), 3 hours
  net flux ratio: 1.6±0.3
Human BCRP [6]; 3 μmol/L Compound (1), 4 hours
  net flux ratio: 1.5±0.2
Human BCRP [6]; 30 μmol/L Compound (1), 2 hours
  net flux ratio: 1.4±0.3
Human BCRP [6]; 30 μmol/L Compound (1), 3 hours
  net flux ratio: 1.1±0.1
Human BCRP [6]; 30 μmol/L Compound (1), 4 hours
  net flux ratio: 1.2±0.1
Human BCRP [6]; criterion net flux ratio exceeding 2
  substrate susceptibility on human BCRP: substrate of BCRP
